Results published in ChEMBL document CHEMBL1153463 (Bioorg Med Chem Lett, 2009).

Assays:
[1] = tested on: Respiratory syncytial virus; assay: Antiviral activity against RSV assessed as inhibition of viral replication by cell based assay; type: functional, organism-based; conditions: human respiratory syncytial virus
[2] = Metabolic stability in human liver mocrosomes; conditions: liver microsomes
[3] = Permeability across human Caco-2 cells
[4] = tested on: Respiratory syncytial virus; assay: Antiviral activity against RSV infected in BALB/c mouse assessed as log reduction in viral titer; type: functional
[5] = Volume of distribution at steady state in rat at 1 mg/kg, iv; conditions: in vivo
[6] = tested on: Respiratory syncytial virus; assay: Antiviral activity against RSV infected in BALB/c mouse assessed as reduction viral replication by RT-PCR; type: functional
[7] = in vivo; conditions: rat, po, 5 mg/kg
[8] = in vivo; conditions: rat, po, 5 mg/kg; remark: listed apart in the source
[9] = in vivo; conditions: rat, iv, 1 mg/kg
[10] = in vivo; conditions: rat, iv, 1 mg/kg; remark: listed apart in the source

| SMILES | EC50 [1] [µM] | half-life [2] [min] | other results |
| --- | --- | --- | --- |
| COC(=O)c1ccc(CO/N=C2/C(=O)N(Cc3nc4ccccc4n3CCN(C)C)c3ccccc32)cc1 | 0.023 | 0.6 | – |
| COCCCn1c(CN2C(=O)/C(=N/OCc3ccc(C(=O)N(C)C)cc3)c3ccccc32)nc2ccccc21 | 0.03 | – | Papp [3]: 237 nm/s |
| COCCCn1c(CN2C(=O)/C(=[N+](/[O-])C(C)C)c3ccccc32)nc2ccccc21 | 0.23 | – | – |
| COCCCn1c(CN2C(=O)/C(=[N+](/[O-])C3CCCCC3)c3ccccc32)nc2ccccc21 | 0.285 | – | – |
| COCCCn1c(CN2C(=O)/C(=N/OCC3CCC3)c3ccccc32)nc2ccccc21 | 0.246 | – | – |
| C#CCCCO/N=C1/C(=O)N(Cc2nc3ccccc3n2CCCOC)c2ccccc21 | 0.064 | – | – |
| O=C1/C(=N/OCC(F)(F)F)c2cccnc2N1Cc1nc2ccccc2n1CCCCO | 0.0798 | 65 | Papp [3]: 154 nm/s |
| O=C1/C(=N/OCCF)c2ccncc2N1Cc1nc2ccccc2n1CCCCF | 0.0619 | 38 | Papp [3]: 158 nm/s |
| CO/N=C1/C(=O)N(Cc2nc3ccccc3n2CCCCF)c2cnccc21 | 0.106 | 26 | Papp [3]: 128 nm/s |
| COCCCn1c(CN2C(=O)/C(=N/OCCCN3CCCCC3)c3ccccc32)nc2ccccc21 | 0.29 | – | – |
| CCC(CC)/[N+]([O-])=C1\C(=O)N(Cc2nc3ccccc3n2CCCOC)c2ccccc21 | 0.898 | – | – |
| CS(=O)(=O)c1ccc(CO/N=C2/C(=O)N(Cc3nc4ccccc4n3CCCCO)c3ccccc32)cc1 | 0.012 | 13 | Papp [3]: 152 nm/s |
| O=C1/C(=N/OCCF)c2cccnc2N1Cc1nc2ccccc2n1CCCCO | 0.0431 | 44 | Papp [3]: 115 nm/s; deltaTCID50 [4]: 0.62 |
| CO/N=C1/C(=O)N(Cc2nc3ccccc3n2CCCCO)c2ncccc21 | 0.0312 | 31 | Papp [3]: 141 nm/s |
| CCN(CC)C(=O)CO/N=C1/C(=O)N(Cc2nc3ccccc3n2CCCOC)c2ccccc21 | 0.026 | – | – |
| N#CCCCn1c(CN2C(=O)/C(=N/OCC(N)=O)c3ccccc32)nc2ccccc21 | 0.045 | – | Papp [3]: 30 nm/s |
| COCCCn1c(CN2C(=O)/C(=N/OCCN(C)C)c3ccccc32)nc2ccccc21 | 0.37 | – | – |
| COCCCn1c(CN2C(=O)/C(=N/OC3CCCCC3)c3ccccc32)nc2ccccc21 | 0.652 | – | – |
| COCCCn1c(CN2C(=O)/C(=N/OCCCF)c3ccccc32)nc2ccccc21 | 0.125 | – | – |
| CO/N=C1/C(=O)N(Cc2nc3ccccc3n2CCCCOC(C)=O)c2ccccc21 | 0.03 | 1.5 | – |
| COCCCn1c(CN2C(=O)/C(=N/OCc3cccnc3)c3ccccc32)nc2ccccc21 | 0.141 | – | – |
| CC(=O)OCCCCn1c(CN2C(=O)/C(=N/OCCF)c3cccnc32)nc2ccccc21 | 0.0546 | – | – |
| C=CCCCO/N=C1/C(=O)N(Cc2nc3ccccc3n2CCCOC)c2ccccc21 | 0.192 | – | – |
| CS(=O)(=O)c1ccc(CO/N=C2/C(=O)N(Cc3nc4ccccc4n3CCCC#N)c3ccncc32)cc1 | 10.2 | 29 | – |
| COCCCn1c(CN2C(=O)/C(=N/OCCCN(C)C)c3ccccc32)nc2ccccc21 | 0.24 | – | – |
| N#CCCCn1c(CN2C(=O)/C(=N/OCC(F)(F)F)c3ccccc32)nc2ccccc21 | 0.066 | 18 | – |
| CS(=O)(=O)CCCn1c(CN2C(=O)/C(=N/OCc3ccccn3)c3ccncc32)nc2ccccc21 | 0.029 | 21 | Papp [3]: 16 nm/s |

| SMILES | EC50 [1] [µM] | half-life [2] [min] | other results |
| --- | --- | --- | --- |
| CC(C)CCn1c(CN2C(=O)/C(=N/Oc3ccccc3)c3ccccc32)nc2ccccc21 | 0.375 | – | – |
| COCCCn1c(CN2C(=O)/C(=N/OCC(=O)O)c3ccccc32)nc2ccccc21 | 0.295 | – | – |
| CS(=O)(=O)c1ccc(CO/N=C2/C(=O)N(Cc3nc4ccccc4n3CCCCO)c3ncccc32)cc1 | 0.0073 | 5.3 | Papp [3]: 71 nm/s |
| CC(C)CCn1c(CN2C(=O)/C(=N/O)c3ccccc32)nc2ccccc21 | 0.01 | – | – |
| COCCCn1c(CN2C(=O)/C(=N/OC(C)C)c3ccccc32)nc2ccccc21 | 0.257 | – | – |
| COCCCn1c(CN2C(=O)/C(=N/OCC(F)(F)F)c3ccccc32)nc2ccccc21 | 2.74 | 3.2 | Papp [3]: 652 nm/s |
| COCCCn1c(CN2C(=O)/C(=N/OC3CCOCC3)c3ccccc32)nc2ccccc21 | 0.206 | – | – |
| N#CCCCn1c(CN2C(=O)/C(=N/OCCF)c3cccnc32)nc2ccccc21 | 0.0573 | 55 | Papp [3]: 155 nm/s |
| COCCCn1c(CN2C(=O)/C(=N/OCCC3CCCCC3)c3ccccc32)nc2ccccc21 | 0.384 | – | – |
| CC(=O)OCCCCn1c(CN2C(=O)/C(=N/O)c3cccnc32)nc2ccccc21 | 0.0497 | 1.3 | Papp [3]: 12 nm/s |
| COCCCn1c(CN2C(=O)/C(=N/OCC3CC3)c3ccccc32)nc2ccccc21 | 0.096 | – | – |
| CCCO/N=C1/C(=O)N(Cc2nc3ccccc3n2CCCOC)c2ccccc21 | 0.147 | – | – |
| COCCCn1c(CN2C(=O)/C(=N/OCC3CCCO3)c3ccccc32)nc2ccccc21 (centres undefined) | 0.152 | – | – |
| C=CCO/N=C1/C(=O)N(Cc2nc3ccccc3n2CCCS(C)(=O)=O)c2cnccc21 | 0.0124 | – | – |
| CC(=O)OCCCCn1c(CN2C(=O)/C(=N/OCc3ccc(S(C)(=O)=O)cc3)c3ccccc32)nc2ccccc21 | 0.005 | – | – |
| COCCCn1c(CN2C(=O)/C(=N/OCS(=O)(=O)O)c3ccccc32)nc2ccccc21 | 0.046 | – | – |
| O=C1/C(=N/OCCF)c2ccncc2N1Cc1nc2ccccc2n1CCCCO | 0.0542 | 100 | Papp [3]: 53 nm/s; deltaTCID50 [4]: 0.68 |
| CC(C)CCn1c(CN2C(=O)/C(=N/Oc3ccc(Br)cc3)c3ccccc32)nc2ccccc21 | 0.705 | – | – |
| CC(C)CCn1c(CN2C(=O)/C(=N/OCc3ccccc3)c3ccccc32)nc2ccccc21 | 0.202 | – | – |
| COCCCn1c(CN2C(=O)/C(=N/OCC(O)CC#N)c3ccccc32)nc2ccccc21 (centres undefined) | 0.065 | – | – |
| CS(=O)(=O)CCCn1c(CN2C(=O)/C(=N/OCCF)c3ccncc32)nc2ccccc21 | 0.0125 | > 100 | Papp [3]: 10 nm/s |
| CO/N=C1/C(=O)N(Cc2nc3ccccc3n2CCCCO)c2ccccc21 | 0.01 | – | – |
| C=CCCO/N=C1/C(=O)N(Cc2nc3ccccc3n2CCCOC)c2ccccc21 | 0.26 | – | – |
| CCCCO/N=C1/C(=O)N(Cc2nc3ccccc3n2CCCOC)c2ccccc21 | 0.261 | – | – |
| COCCCn1c(CN2C(=O)/C(=N/OCc3ccncc3)c3ccccc32)nc2ccccc21 | 0.242 | 0.6 | Papp [3]: 214 nm/s |
| CN(C)CCn1c(CN2C(=O)/C(=N/OCc3ccc(C(=O)O)cc3)c3ccccc32)nc2ccccc21 | 0.0165 | – | – |
| O=C1/C(=N/O)c2ccncc2N1Cc1nc2ccccc2n1CCCCF | 0.0179 | 100 | Papp [3]: 27 nm/s |

| SMILES | EC50 [1] [µM] | half-life [2] [min] | other results |
| --- | --- | --- | --- |
| COCCCn1c(CN2C(=O)/C(=N/OCc3ccc(C(=O)OC)cc3)c3ccccc32)nc2ccccc21 | 0.05 | – | – |
| CO/N=C1/C(=O)N(Cc2nc3ccccc3n2CCC(C)C)c2ccccc21 | 0.087 | – | – |
| N#CCCCn1c(CN2C(=O)/C(=N/OCC(F)(F)F)c3cccnc32)nc2ccccc21 | 0.112 | 48 | Papp [3]: 180 nm/s |
| CS(=O)(=O)CCCn1c(CN2C(=O)/C(=N/OCCF)c3cccnc32)nc2ccccc21 | 0.0292 | > 100 | Papp [3]: 182 nm/s; Vd [5]: 1.8 L/kg; deltaTCID50 [4]: 1.05; Ratio [6]: 45; bioavailability [7]: 14%; Cmax [8]: 0.014 µg/mL; clearance [9]: 7.8 L/h/kg; half-life [10]: 12 min |
| CC(C)CCn1c(CN2C(=O)/C(=N/OCc3ccc(C(=O)N(C)C)cc3)c3ccccc32)nc2ccccc21 | 0.009 | – | – |
| CCCCCO/N=C1/C(=O)N(Cc2nc3ccccc3n2CCCOC)c2ccccc21 | 0.188 | – | – |
| CC(C)CCn1c(CN2C(=O)/C(=N/OCc3ccc(C(=O)O)cc3)c3ccccc32)nc2ccccc21 | 0.016 | – | – |
| CS(=O)(=O)CCCn1c(CN2C(=O)/C(=N/OCc3ccc(S(C)(=O)=O)cc3)c3cnccc32)nc2ccccc21 | 10.6 | 200 | – |
| COCCCn1c(CN2C(=O)/C(=N/OCc3ccccn3)c3ccccc32)nc2ccccc21 | 0.238 | – | – |
| C=CCO/N=C1/C(=O)N(Cc2nc3ccccc3n2CCCOC)c2ccccc21 | 0.428 | – | – |
| COCCCn1c(CN2C(=O)/C(=N/OCCN3CCCCC3)c3ccccc32)nc2ccccc21 | 0.682 | – | – |
| CCO/N=C1/C(=O)N(Cc2nc3ccccc3n2CCCOC)c2ccccc21 | 0.059 | – | – |
| N#CCCCn1c(CN2C(=O)/C(=N/O)c3cccnc32)nc2ccccc21 | 0.0227 | 100 | Papp [3]: 42 nm/s |
| CC(C)(C)O/N=C1/C(=O)N(Cc2nc3ccccc3n2CCCCO)c2ccccc21 | 1.13 | – | – |
| COC(=O)c1ccc(CO/N=C2/C(=O)N(Cc3nc4ccccc4n3CCNS(C)(=O)=O)c3ccccc32)cc1 | 0.051 | – | – |
| CCC(CC)O/N=C1/C(=O)N(Cc2nc3ccccc3n2CCCOC)c2ccccc21 | 0.935 | – | – |
| COCCCn1c(CN2C(=O)/C(=N/OCCCC#N)c3ccccc32)nc2ccccc21 | 0.079 | – | – |
| COCCCn1c(CN2C(=O)/C(=N/OCCF)c3ccccc32)nc2ccccc21 | 0.071 | – | – |
| COCCCn1c(CN2C(=O)/C(=N/OCC(N)=O)c3ccccc32)nc2ccccc21 | 0.154 | 21 | Papp [3]: 15 nm/s |
| CO/N=C1/C(=O)N(Cc2nc3ccccc3n2CCCCO)c2cnccc21 | 0.0309 | 84 | Papp [3]: 98 nm/s |
| COCCCn1c(CN2C(=O)/C(=N/OCCCCOC(C)=O)c3ccccc32)nc2ccccc21 | 0.062 | – | – |
| CO/N=C1/C(=O)N(Cc2nc3ccccc3n2CCCC#N)c2ncccc21 | 0.0928 | 28 | Papp [3]: 160 nm/s |
| COCCCn1c(CN2C(=O)/C(=N/OC(CC(O)O)C(O)O)c3ccccc32)nc2ccccc21 (centres undefined) | 0.019 | – | – |
| COC(=O)c1ccc(CO/N=C2/C(=O)N(Cc3nc4ccccc4n3CCC(C)C)c3ccccc32)cc1 | 0.023 | 0.6 | – |
| COCCCn1c(CN2C(=O)/C(=N/OC)c3ccccc32)nc2ccccc21 | 0.03 | 16 | – |
